Laboratory results taken from patent US7597904B2, “Metalloproteinase inhibitory agent” (Nestec S.A., priority 2004, dated 2009).
pIC50: −log10 of the molar value. Each block holds one compound with its values, some of them ahead of it. Residues, ends and D or L forms follow the SMILES beside them.

Legend:
HT-29 cells [1] = test: Proliferation of HT-29 cells with synthetic peptides (percentage of counts); assay type: cell-based, human
Procedure: (§1) Undifferentiated cells (passages 45-78) were maintained in glucose-containing DMEM supplemented with 10% FCS at 37° C. in a 5% CO2/air incubator. Culture medium was changed every two days until the cell monolayers reached 50% confluence. For stimulation assays, HT-29 cells were plated at 1.2*10^4 cells/well in 96-well flat-bottom plates. After incubation for 4 days, the amount of cells present in the wells before incubation with the samples was assessed adding neutral red solution in 4 wells and incubating the plate for 45 min. The HT-29 cells were then washed twice with serum-free media (inclusive the wells with neutral red solution). The wells colored with neutral red remained from now on free of any media.
Synthetic peptides that were tested on HT-29 cell line confirmed their antiproliferative potential.
The same experiment was performed with a shorter version of the former mentioned peptide: ENLLRFFVAPFPEVFG (SEQ ID NO:22) (αS1 33-48).

ACE = target: T1, ACE (Homo sapiens, UniProt P12821); test: Angiotensin-converting-enzyme inhibitory test, FAPGG substrate; assay type: biochemical; conditions: substrate N-[3-2(furyl)acryloyl]L-phenylalanylglycylglycine; read-out: IC50 for the inhibition of ACE
T1 construct: purchased
Procedure: Angiotensin-Converting-Enzyme Inhibitory Test
This procedure is a rapid spectrophotometric method utilizing the synthetic tripeptide substrate N-[3-(2-furyl)acryloil]-L-phenylalanylglycylglycine (FAPGG). Km-value: 0.3 mM.
FAPGG was hydrolysed to furylacryloylphenylalanine (FAP) and glycylgylcine.
The ACE reagent and the ACE Calibrator were reconstituted according to the manufacturer's recommendations.
The assay was performed in quartz cuvets. 0.05 ml ACE Reagent Solution, 0.05 ml casein hydrolysate and 0.05 ml ACE calibrator were mixed and incubated at 37° C. for 10 minutes.
The absorbance at 340 nm was measured as a function of time.
The ACE activity in the sample was determined by comparing the sample reaction rate to that obtained with the ACE calibrator. The results are expressed as percentage with respect to the control.

MMP-2 = target: T2, MMP-2 (Homo sapiens, UniProt P08253); test: Matrix metalloproteinase inhibitory test, DQ-gelatin substrate; assay type: biochemical; conditions: flourescein conjugated gelatin; read-out: IC50 for the inhibition of MMP-2
T2 sequence (P08253 110-660): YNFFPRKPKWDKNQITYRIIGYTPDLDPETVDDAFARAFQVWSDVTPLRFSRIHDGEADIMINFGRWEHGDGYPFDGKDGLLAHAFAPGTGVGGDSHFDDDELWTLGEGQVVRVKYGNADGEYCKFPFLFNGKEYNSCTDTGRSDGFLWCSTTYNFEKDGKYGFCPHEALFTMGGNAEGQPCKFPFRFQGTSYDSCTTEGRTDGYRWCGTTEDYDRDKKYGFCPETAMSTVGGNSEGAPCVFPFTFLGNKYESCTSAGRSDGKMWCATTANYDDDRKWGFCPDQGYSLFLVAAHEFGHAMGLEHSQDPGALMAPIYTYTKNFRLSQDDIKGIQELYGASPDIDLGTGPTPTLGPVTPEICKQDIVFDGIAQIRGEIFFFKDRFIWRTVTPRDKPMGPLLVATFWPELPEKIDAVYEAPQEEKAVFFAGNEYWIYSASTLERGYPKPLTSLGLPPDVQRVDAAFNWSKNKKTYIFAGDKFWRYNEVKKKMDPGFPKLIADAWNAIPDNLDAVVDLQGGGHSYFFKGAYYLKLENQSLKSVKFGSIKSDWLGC
Procedure: (§2) Matrix Metalloproteinase Inhibitory Test
(§3) The assay was performed in microtiter plates. In each single well 1 μl enzyme, the inhibitor at the desired concentration and finally 5 μl substrate were added to PBS buffer (pH 7.0-7.5), final volume: 200 μl. The reaction mixture was incubated at 37° C. for 2 hours. The increase in fluorescence was continuously recorded, exciting at 485 nm and reading the emission at 530 nm, with a gain of 40.
(§4) Inhibitors:— o-phenantroline: 9.9 mg in 25 μl DMF (dimethylformamide→add 1 μl (final concentration: 10 mM) • synthetic inhibitors at different concentrations
(§5) Substrate: DQ-gelatin: 1 mg/ml in PBS→add 5 μl to the reaction (reaction volume: 200 μl) (final concentration: […])
(§6) Enzymes: • MMP-7: stock solution: 1 U/μl • MMP-2: stock solution: 0.05 μg/μl • MMP-9: stock solution: 0.05 μg/μl Results & Discussion Generation of the Peptide Library with Lb. helveticus CNCM I-2864 . . .

MMP-7 = target: T3, MMP-7 (Homo sapiens, UniProt P09237); test: as above; assay type: biochemical; conditions: flourescein conjugated gelatin; read-out: IC50 for the inhibition of MMP-7
T3 sequence (P09237 95-267): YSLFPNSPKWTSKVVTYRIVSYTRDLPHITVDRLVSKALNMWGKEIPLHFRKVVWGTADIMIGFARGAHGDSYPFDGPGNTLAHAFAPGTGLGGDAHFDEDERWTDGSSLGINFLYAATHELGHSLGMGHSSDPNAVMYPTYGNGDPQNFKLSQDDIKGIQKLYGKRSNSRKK
Procedure: as §2, §3, §4, §5, §6

MMP-9 = MMP-9 (Homo sapiens, UniProt P14780); test: as above; assay type: biochemical; conditions: flourescein conjugated gelatin; read-out: IC50 for the inhibition of MMP-9
Procedure: as §2, §3, §4, §5, §6

MMPs = conditions: background statement; cited from earlier work
MMP = test: Matrix metalloproteinase inhibitory test, positive control; assay type: biochemical; conditions: 10 mM concentration; data not shown
Procedure: as §2, §3, §4

HT-29 cells [2] = test: Proliferation assay of HT-29 cells with caseinate hydrolysates and fractions (neutral red, OD 540 nm); assay type: cell-based, human
Procedure: Culture of Human Intestinal Epithelial Cells (IECs) and Proliferation Assay
• Human colonic adenocarcinoma cell line HT29 (ATCC: HTB-38) from the American Type Culture Collection (ATCC, Manassas, Va.). • DMEM, high glucose (4.5 g/l), with stable glutamine (BioConcept, AMIMED, Allschwil, Switzerland)
as §1
HT-29 cells were then incubated 24 hours respectively in the presence of 80 μg (hydrolysed) sodium caseinate samples in 200 μl DMEM, in 200 μl serum-free medium (blank), in 200 μl medium with serum (positive control) or in 0.9% saline solution (negative control). […] The dye was finally extracted with 100 μl of an extraction solution and the optical density measured at 540 nm. The optical density measured correlates with the number of cells present in the wells.
The proliferation was calculated by the difference in absorbance between the cells having been incubated 24 hours with sodium caseinate samples, with serum-free medium, with medium containing serum or with 0.9% saline solution and the cells before incubation.
The difference in absorbance ΔA540 from the blank (cells incubated with serum-free medium) was normalized. The results were then expressed as percentage with respect to the blank. • Culture medium with serum: DMEM was supplemented with 10% decomplemented FCS and 1% Penicillin-Streptomycin. […]

HT-29 cells [3] = test: Lactate dehydrogenase cytotoxicity test; assay type: cell-based, human; conditions: Table 4; HT-29, LDH released, 24 hours incubation
Excerpt: Lactate Dehydrogenase Cytotoxicity Test
Cell viability was rigorously measured according the manufacturer's recommendations (Roche Diagnostics). The test is based on the measurement of lactate dehydrogenase (LDH) activity released from the cytosol of damaged cells in the supernatant.
Most current assays for measuring cytotoxicity are based on alterations of plasma membrane permeability and the consequent release of cytoplasmic enzymes or the uptake of dyes, normally excluded by viable cells. We here chose to measure the lactate dehydrogenase (LDH) activity released from damaged cells.

Chain of MMP-9 (P14780 94-707, species assumed): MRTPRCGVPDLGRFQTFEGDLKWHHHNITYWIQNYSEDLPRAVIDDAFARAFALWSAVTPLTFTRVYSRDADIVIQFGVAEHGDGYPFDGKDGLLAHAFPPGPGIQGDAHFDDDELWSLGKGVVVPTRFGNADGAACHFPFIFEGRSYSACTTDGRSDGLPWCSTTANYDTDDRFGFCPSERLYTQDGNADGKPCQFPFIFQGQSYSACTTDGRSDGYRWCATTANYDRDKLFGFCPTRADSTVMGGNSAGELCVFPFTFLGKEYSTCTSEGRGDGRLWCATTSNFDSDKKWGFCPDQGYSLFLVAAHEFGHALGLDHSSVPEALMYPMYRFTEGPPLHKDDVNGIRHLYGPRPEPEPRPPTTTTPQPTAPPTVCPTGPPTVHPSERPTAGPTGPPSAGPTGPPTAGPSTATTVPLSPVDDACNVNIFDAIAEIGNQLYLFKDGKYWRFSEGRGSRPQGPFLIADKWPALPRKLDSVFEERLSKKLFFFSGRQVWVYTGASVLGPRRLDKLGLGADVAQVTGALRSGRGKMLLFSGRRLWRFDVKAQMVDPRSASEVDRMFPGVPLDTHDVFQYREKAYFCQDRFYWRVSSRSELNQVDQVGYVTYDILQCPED
T1 sequence (P12821 30-1306, species assumed): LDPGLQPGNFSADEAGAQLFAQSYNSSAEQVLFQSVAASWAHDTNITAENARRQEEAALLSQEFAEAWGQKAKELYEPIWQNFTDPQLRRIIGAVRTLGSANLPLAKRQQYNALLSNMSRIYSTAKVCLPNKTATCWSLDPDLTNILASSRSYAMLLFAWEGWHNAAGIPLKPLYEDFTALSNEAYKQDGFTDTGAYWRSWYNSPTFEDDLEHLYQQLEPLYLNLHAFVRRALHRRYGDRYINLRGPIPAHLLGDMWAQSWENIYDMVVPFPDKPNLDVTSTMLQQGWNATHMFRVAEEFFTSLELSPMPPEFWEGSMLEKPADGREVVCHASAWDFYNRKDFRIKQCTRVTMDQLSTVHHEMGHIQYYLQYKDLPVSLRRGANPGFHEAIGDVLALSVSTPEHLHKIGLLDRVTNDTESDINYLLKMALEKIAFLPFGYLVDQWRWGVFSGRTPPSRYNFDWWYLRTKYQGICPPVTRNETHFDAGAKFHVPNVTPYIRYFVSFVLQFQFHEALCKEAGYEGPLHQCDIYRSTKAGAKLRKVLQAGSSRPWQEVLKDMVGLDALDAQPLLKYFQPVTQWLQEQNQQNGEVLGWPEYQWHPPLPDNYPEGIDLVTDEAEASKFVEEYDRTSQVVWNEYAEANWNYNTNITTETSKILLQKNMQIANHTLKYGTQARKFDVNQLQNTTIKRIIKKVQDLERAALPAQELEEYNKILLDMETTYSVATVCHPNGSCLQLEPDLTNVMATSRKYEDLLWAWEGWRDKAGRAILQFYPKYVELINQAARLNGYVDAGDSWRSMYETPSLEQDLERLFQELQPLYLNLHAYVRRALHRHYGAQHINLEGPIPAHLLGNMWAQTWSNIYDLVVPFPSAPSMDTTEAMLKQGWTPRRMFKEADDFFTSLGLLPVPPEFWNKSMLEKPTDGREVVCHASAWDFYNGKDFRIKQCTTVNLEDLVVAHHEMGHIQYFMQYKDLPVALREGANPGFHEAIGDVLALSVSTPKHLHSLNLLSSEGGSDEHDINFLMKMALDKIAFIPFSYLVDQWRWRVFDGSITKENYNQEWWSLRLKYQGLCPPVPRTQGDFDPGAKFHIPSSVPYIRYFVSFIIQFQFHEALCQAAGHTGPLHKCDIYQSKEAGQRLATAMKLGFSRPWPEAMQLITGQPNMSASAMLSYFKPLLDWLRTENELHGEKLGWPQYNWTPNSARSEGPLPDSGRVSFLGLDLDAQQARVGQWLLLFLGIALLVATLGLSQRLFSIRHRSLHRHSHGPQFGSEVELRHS

pIC50 (ACE): 3.55
pIC50 (MMP-2): 3.60
pIC50 (MMP-7): 3.52
pIC50 (MMP-9): 3.82
Compound: CC(C)C[C@H](NC(=O)[C@H](CC(C)C)NC(=O)[C@H](CC(N)=O)NC(=O)[C@H](CCC(=O)O)NC(=O)[C@H](CC(N)=O)NC(=O)[C@@H](N)CC(C)C)C(=O)N[C@@H](CCCNC(=N)N)C(=O)N[C@@H](Cc1ccccc1)C(=O)N[C@@H](Cc1ccccc1)C(=O)N[C@H](C(=O)N[C@@H](C)C(=O)N1CCC[C@H]1C(=O)N[C@@H](Cc1ccccc1)C(=O)N1CCC[C@H]1C(=O)N[C@@H](CCC(=O)O)C(=O)N[C@H](C(=O)N[C@@H](Cc1ccccc1)C(=O)NCC(=O)O)C(C)C)C(C)C [LNENLLRFFVAPFPEVFG] (H-LNENLLRFFVAPFPEVFG-OH; N-terminus and C-terminus assumed)
antiproliferative activity of synthetic peptides (in words) (HT-29 cells [1]; HT-29 cells): strongly inhibited proliferation
% prolif (percentage of counts with respect to the control) (HT-29 cells [1]; peptide concentration 2 μM): 56%
% prolif (percentage of counts with respect to the control) (HT-29 cells [1]; peptide concentration 4 μM): 44%
% prolif (percentage of counts with respect to the control) (HT-29 cells [1]; peptide concentration 8 μM): 160%
% prolif (percentage of counts with respect to the control) (HT-29 cells [1]; peptide concentration 17 μM): 114%
% prolif (percentage of counts with respect to the control) (HT-29 cells [1]; peptide concentration 33 μM): 131%
% prolif (percentage of counts with respect to the control) (HT-29 cells [1]; peptide concentration 66 μM): 119%
% prolif (percentage of counts with respect to the control) (HT-29 cells [1]; peptide concentration 133 μM): 135%

Compound: CNC(=O)[C@@H](NC(=O)[C@H](CC(C)C)[C@H](O)C(=O)NO)C(C)(C)C [marimastat]
IC50 (MMPs): micromolar range

MMP inhibition (in words) (MMP): complete MMP inhibition
Compound: c1cnc2c(c1)ccc1cccnc12 [o-phenantroline]

Compound: sodium caseinate
antiproliferative activity (in words) (HT-29 cells [2]; HT-29 cells): no activity
% prolif (percentage of OD at 540 nm with respect to the control (−serum)) (HT-29 cells [2]; Table 2, HT-29, 24 hours incubation, 80 μg sample in 200 μl DMEM): 93 +/− 12%
% prolif (percentage of OD at 540 nm with respect to the control (−serum)) (HT-29 cells [2]; Table 3, HT-29, active fraction with or without heat / enzyme treatment (alcalase, proteinase A)): 93 +/− 7%
cytotoxic potential, percentage of OD at 490 nm with respect to the control (lysate); row head % prolif (HT-29 cells [3]): 9 +/− 3%
